Test results taken from patent US20120088746A1, “AMIDE DERIVATIVES AS ION-CHANNEL LIGANDS AND PHARMACEUTICAL COMPOSITIONS AND METHODS OF USING THE SAME” (PFIZER INC., priority 2006, published 2012).

Target: human VR1 (Homo sapiens, UniProt Q8NER1)
Assay: Acid stimulation assay (acid-induced intracellular calcium change, FDSS 6000)
Type: cell-based
Details: final assay buffer pH5.8, 15 min pre-incubation, read-out: IC50 (nM) Low pH
Source text: VR1 antagonistic activity can be determined by the Ca^2+ imaging assay using human VR1 highly expressing cells. The cells that highly express human VR1 receptors are obtainable from several different conventional methods. The one standard method is cloning from human Dorsal Root Ganglion (DRG) or kidney according to the methods such as described in the journal article; Nature, 389, pp 816-824, 1997. Alternatively VR1 receptors highly expressing human keratinocytes are also known and published in the journal article (Biochemical and Biophysical Research Communications, 291, pp 124-129, 2002). […] Furthermore, the method to up regulate human VR1 gene, which is usually a silent gene or don't produce detectable level of VR1 receptors, is also available to obtain propriety cells. Such genetic modification method was described in detail; Nat. Biotechnol., 19, pp 440-445, 2001.
The cells that express human VR1 receptors were maintained in culture flask at 37° C. in an environment containing 5% CO2 until use in the assay. The intracellular Ca^2+ imaging assay to determine VR1 antagonistic activities were done by following procedures.
The culture medium was removed from the flask and fura-2/AM fluorescent calcium indicator was added to the flask at a concentration of 5 μM in the medium. The flask was placed in CO2 incubator and incubated for 1 hour. Then the cells expressing the human VR1 receptors were detached from the flask follow by washing with phosphate buffer saline, PBS(−) and re-suspended in assay buffer. The 80 tit of aliquot of cell suspension (3.75×10^5 cells/ml) was added to the assay plate and the cells were spun down by centrifuge (950 rpm, 20° C., 3 minutes).
(§1) The Acid-induced changes in the intracellular calcium concentration were monitored using FDSS 6000 (Hamamatsu Photonics, Japan), a fluorometric imaging system. The cell suspension in resting buffer (HBSS supplemented with 10 mM HEPES, pH 7.4) were pre-incubated with varying concentrations of the test compounds or resting buffer (buffer control) for 15 minutes at room temperature under the dark condition. The cells were automatically added the stimulating solution (HBSS supplemented with MES, final assay buffer pH5.8) by the FDSS 6000.
as §1, with “7.4) was” for “7.4) were”, “under” for “under the”, “dark conditions.” for “dark condition.”, “added to” for “added”

human VR1, sequence (Q8NER1 whole entry): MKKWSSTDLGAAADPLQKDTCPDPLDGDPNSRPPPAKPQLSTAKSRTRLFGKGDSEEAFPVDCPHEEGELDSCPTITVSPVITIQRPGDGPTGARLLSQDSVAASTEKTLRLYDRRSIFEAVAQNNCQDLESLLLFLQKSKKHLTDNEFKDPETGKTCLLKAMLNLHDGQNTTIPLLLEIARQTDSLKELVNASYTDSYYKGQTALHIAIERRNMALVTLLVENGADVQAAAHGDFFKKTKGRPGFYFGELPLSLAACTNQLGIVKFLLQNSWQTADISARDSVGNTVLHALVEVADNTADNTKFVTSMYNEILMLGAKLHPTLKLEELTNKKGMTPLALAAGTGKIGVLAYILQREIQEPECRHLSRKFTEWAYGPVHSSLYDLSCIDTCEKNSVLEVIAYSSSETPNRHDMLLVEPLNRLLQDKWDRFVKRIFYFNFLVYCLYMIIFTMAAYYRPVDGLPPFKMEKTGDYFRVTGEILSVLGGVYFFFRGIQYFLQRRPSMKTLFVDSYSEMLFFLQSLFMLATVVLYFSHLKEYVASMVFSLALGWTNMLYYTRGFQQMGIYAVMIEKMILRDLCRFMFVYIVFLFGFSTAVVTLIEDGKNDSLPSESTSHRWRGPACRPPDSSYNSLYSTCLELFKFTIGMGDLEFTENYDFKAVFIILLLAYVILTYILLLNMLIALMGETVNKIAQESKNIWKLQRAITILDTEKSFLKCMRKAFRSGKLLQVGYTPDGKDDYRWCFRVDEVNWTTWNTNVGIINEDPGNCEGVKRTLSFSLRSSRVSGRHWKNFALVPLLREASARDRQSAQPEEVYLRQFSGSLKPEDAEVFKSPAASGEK

Question: How did the IC50 turn out when Cc1cc([C@@H](C)NC(=O)c2ccc3nc(C(F)(F)F)cc(OC4CCOCC4)c3c2)c(F)cc1NS(C)(=O)=O [Example 94, 4-(TETRAHYDRO-PYRAN-4-YLOXY)-2-TRIFLUOROMETHYL-QUINOLINE-6CARBOXYLIC ACID [(R)-1-(2-FLUORO-4-METHANESULFONYLAMINO-5-METHYL-PHENYL)-ETHYL]-AMIDE] was run?
Answer: 35 nM

Question: How did the IC50 turn out when CCOC(=O)N1CCN(c2nc(C(F)(F)F)nc3ccc(C(=O)N[C@H](C)c4cc(C)c(NS(C)(=O)=O)cc4F)cc23)CC1 [Example 96, 4-{6-[(R)-1-(2-FLUORO-4-METHANESULFONYLAMINO-5-METHYL-PHENYL)-ETHYLCARBAMOYL]-2-TRIFLUOROMETHYL-QUINAZOLIN-4-YL}-PIPERAZINE-1-CARBOXYLIC ACID ETHYL ESTER] was run?
Answer: 41 nM

Question: For Cc1cc([C@@H](C)NC(=O)c2ccc3nc(C(F)(F)F)cc(NC4CCCCC4)c3c2)c(F)cc1NS(C)(=O)=O [Example 97, 4-CYCLOHEXYLAMINO-2-TRIFLUOROMETHYLQUINOLINE-6-CARBOXYLIC ACID [(R)-1-(2-FLUORO-4-METHANESULFONYLAMINO-5-METHYLPHENYL)ETHYL]AMIDE], which IC50 is on record?
Answer: 41 nM

Question: How did the IC50 turn out when Cc1cc([C@@H](C)NC(=O)c2ccc3nc(C(F)(F)F)cc(N4CCC(CO)CC4)c3c2)c(F)cc1NS(C)(=O)=O [Example 99, 4-(4-HYDROXYMETHYL-PIPERIDIN-1-YL)-2-TRIFLUOROMETHYL-QUINOLINE-6-CARBOXYLIC ACID [(R)-1-(2-FLUORO-4-METHANESULFONYLAMINO-5-METHYL-PHENYL)-ETHYL]-AMIDE] was run?
Answer: 630 nM

Question: How did the IC50 turn out when Cc1cc([C@@H](C)NC(=O)c2ccc3cc(C(C)(O)C(F)(F)F)ccc3c2)c(F)cc1NS(C)(=O)=O (stereo partly drawn) [Example 101] was run?
Answer: 41 nM

Question: Which IC50 does the source give for Cc1cc([C@@H](C)NC(=O)c2ccc3cc(-n4cccn4)ccc3c2)c(F)cc1NS(C)(=O)=O [Example 105, 6-PYRAZOL-1-YL-NAPHTHALENE-2-CARBOXYLIC ACID [(R)-1-(2-FLUORO-4-METHANESULFONYLAMINO-5-METHYL-PHENYL)-ETHYL]-AMIDE] here?
Answer: 147 nM

Question: How did the IC50 turn out when Cc1cc([C@@H](C)NC(=O)c2ccc3nc(C(F)(F)F)nc(N4CCC(Cc5ccccc5)CC4)c3c2)c(F)cc1NS(C)(=O)=O [Example 106, 4-(4-BENZYL-PIPERIDIN-1-YL)-2-TRIFLUOROMETHYL-QUINAZOLINE-6-CARBOXYLIC ACID [(R)-1-(2-FLUORO-4-METHANESULFONYLAMINO-5-METHYL-PHENYL)-ETHYL]-AMIDE] was run?
Answer: 6 nM

Question: Which IC50 does the source give for COC1CCN(c2ccc3cc(C(=O)N[C@H](C)c4cc(C)c(NS(C)(=O)=O)cc4F)ccc3n2)CC1 [Example 107] here?
Answer: 337 nM

Question: Cc1cc([C@@H](C)NC(=O)c2ccc3nc(C4(C)CC4)ccc3c2)c(F)cc1NS(C)(=O)=O [Example 108, N-((1R)-1-{2-FLUORO-5-METHYL-4-[(METHYLSULFONYL)AMINO]PHENYL}ETHYL)-2-(1-METHYLCYCLOPROPYL)QUINOLINE-6-CARBOXAMIDE] was tested. Which IC50 did it give?
Answer: 5 nM

Question: How did the IC50 turn out when Cc1cc([C@@H](C)NC(=O)c2ccc3nc(N4CCC(F)(F)CC4)ccc3c2)c(F)cc1NS(C)(=O)=O [Example 110, (R)-2-(4,4-DIFLUOROPIPERIDIN-1-YL)-N-(1-(2-FLUORO-5-METHYL-4-(METHYLSULFONAMIDO)PHENYL)ETHYL)QUINOLINE-6-CARBOXAMIDE] was run?
Answer: 94 nM

Question: Cc1cc([C@@H](C)NC(=O)c2ccc3nc(C(F)(F)F)nc(N4CCOCC4)c3c2)c(F)cc1NS(C)(=O)=O [Example 112, 4-MORPHOLIN-4-YL-2-TRIFLUOROMETHYL-QUINAZOLINE-6-CARBOXYLIC ACID [(R)-1-(2-FLUORO-4-METHANESULFONYLAMINO-5-METHYL-PHENYL)-ETHYL]-AMIDE] was tested. Which IC50 did it give?
Answer: 33 nM

Question: With Cc1cc([C@@H](C)NC(=O)c2ccc3nc(N4CCC(C)(C)CC4)ccc3c2)c(F)cc1NS(C)(=O)=O [Example 113] as the compound, how does the IC50 read?
Answer: 149 nM
